Source: patent US11434492B2, “Ribosome-mediated incorporation of peptides and peptidomimetics” (Arizona Board of Regents on behalf of Arizona State …, priority 2015, dated 2022)

Experiments:
[1] = test system: modified ribosomes from clones 010328R4; assay: In vitro translation: incorporation into position 49 of DHFR (pETDH49), S-30 from clone 010328R4; format: biochemical, E. coli; conditions: clone 010328R4 (group 1)
Experimental: (§1) In vitro Protein Translation. Protein translation reactions were carried out in 12-2000 μL of incubation mixture containing 0.4 μL/μL of S-30 system, 100 ng/μL of plasmid, 35 mM Tris acetate, pH 7.4, 190 mM potassium glutamate, 30 mM ammonium acetate, 2 mM DTT, 0.2 mg/mL total E. coli tRNA, 3.5% PEG 6000, 20 μg/mL folinic acid, 20 mM ATP and GTP, 5 mM CTP and UTP, 100 μM amino acids mixture, 0.5 μCi/μL of ^35S-methionine for analytical purposes only and 1 μg/mL rifampicin. In the case of plasmids having a gene with a TAG codon, a suppressor tRNA was added to a concentration of 0.8 μg/μL. Reactions were carried out at 37° C. for 1 h (for 12 μL reaction mixtures) to 1.5 h (for 2000 μL reaction mixtures) and terminated by chilling on ice. Aliquots from in vitro translation mixtures were analyzed by SDS-PAGE followed by quantification of the radioactive bands by phosphorimager analysis.
The other two compounds gave about 1.5-2 times lower suppression efficiency (7-9 and 5-6%).

[2] = Fluorescence emission of dipeptidomimetics and of proteins containing them; format: physicochemical; conditions: as stated for comparison of 6 and wild-type BFP
Excerpt: Further, we prepared a modified DHFR having dipeptidomimetic 6 at position 10 at larger scale to investigate the fluorescence intensity of 6 in protein. The fluorescence emission spectra of wild-type DHFR and modified DHFR having 6 at position 10 were compared (FIG. 8) at 302 nm excitation wavelength.
Fluorescence Emission of an Artificial BFP Having Dipeptidomimetic 6. We designed fluorescent dipeptidomimetics 6-10 as stable analogues of GFP-chromophore. We anticipated their use to create artificial fluorescent proteins; to verify the same we replaced the chromophore of BFP with dipeptidomimetic 6 in order to prepare an artificial fluorescent protein. The fluorescence emission of 6 is near blue region of visible light spectrum (˜400 nm). Therefore, we compared the fluorescence emission intensity of artificial FP (artificial BFP 1) having 6 at position 66 with wild-type BFP, which has a fluorescence emission ˜450 nm. […] Wild-type and artificial BFP were prepared in a larger scale in a cell free translation system for fluorescence measurements.
A modified BFP construct, having a TAG codon in position 66 and a suppressor tRNACUA activated with 6 were used for the preparation of artificial BFP 1. […] As illustrated from FIG. 11, fluorescence intensity of artificial BFP 1 (emission maximum ˜375 nm) having 6 in position 66 is 20-fold greater than the wild-type BFP at similar protein concentrations. […]

[3] = test system: modified ribosomes (23S rRNA modified); assay: In vitro translation: suppression of UAG codon at position 10 of DHFR mRNA, S-30 systems having modified ribosomes; format: biochemical, E. coli; conditions: position 10 of E. coli DHFR, relative to wild-type DHFR = 100
Experimental: Preparation of Aminoacyl-tRNACUAs. The activation of suppressor tRNACUAs was carried out as described previously.^4,5 Briefly, 100-μL reaction mixture of 100 mM Na Hepes, pH 7.5, contained 1.0 mM ATP, 15 mM MgCl2, 100 μg of suppressor tRNACUA-COH, 0.5 A260 unit of N-pentenoyl-protected aminoacyl-pdCpA, 15% DMSO, and 100 units of T4 RNA ligase. The reaction mixture was incubated at 37° C. for 1.5 h and quenched by the addition of 0.1 vol of 3 M NaOAc, pH 5.2. The N-protected aminoacylated tRNA was precipitated with 3 vol of cold ethanol. The efficiency of ligation was estimated by 8% polyarylamide-7 M urea gel electrophoresis (pH 5.0).
The N-pentenoyl-protected aminoacyl-tRNACUAs were deprotected by treatment with 5 mM aqueous […] at 25° C. for 15 min. The solution was centrifuged, and the supernatant was adjusted to 0.3 M NaOAc and treated with 3 vol of cold ethanol to precipitate the aminoacylated tRNA. The tRNA pellet was collected by centrifugation, washed with 70% aq EtOH, air dried and dissolved in 20 μL of RNase free water.
Preparation of S-30 Extracts from Cells Having Modified Ribosomes. Aliquots (5-10 μL) from liquid stocks of E. coli BL-21 (DE-3) cells, harboring plasmids with a wild-type or modified rrnB gene, were placed on LB agar supplemented with 100 µg/mL of ampicillin and grown at 37° C. for 16-18 h. One colony was picked from each agar plate and transferred into 3 mL of LB medium supplemented with 100 μg/mL of ampicillin and 0.5 mM IPTG.
as §1
Incorporation of Dipeptides 2, 3 and 4 into DHFR Using the Modified Ribosomes. Initially, glycylphenylalanine (2) was chosen to screen the selected modified ribosomes for their ability to incorporate a dipeptide into DHFR. It was anticipated that minimal steric hindrance and more flexibility at the N-terminus of the dipeptide (a glycine residue) would enable optimal positioning of the amine for a nucleophilic attack in the PTC of the modified ribosomes. A modified DHFR construct, having a TAG codon in position 10 (pETDH10 plasmid) was used for the incorporation of glycylphenylalanine.
The suppression efficiencies were expressed relative to the wild-type DHFR synthesis. As a negative control, wild-type DHFR synthesis in the presence of nonacylated-tRNACUA was measured for each experiment. The amounts of DHFR produced were quantified with a phosphoimager, which monitored the incorporation of ^35S-methionine into DHFR. Using glycylphenylalanyl-tRNACUA, S-30 preparations having the modified ribosomes from clone groups 1, 2, 3 and 9 produced full length DHFR in ˜9% yields relative to the wild-type DHFR synthesis (Table 3). The modified ribosomes from clone groups 4-8 incorporated glycylphenylalanine (2) with low yields (˜2-4%). For dipeptide 2, best incorporation yields (up to 12%) were obtained by S-30 system having modified ribosomes from clone group 9 (2057AGUGAGA2063 and 2502AUCCGA2507).

[4] = test system: modified ribosomes from clone 010326R6; assay: In vitro translation: suppression of TAG codon at position 66 of GFP (pETGFP66), S-30 from clone 010326R6; format: biochemical, Escherichia coli
Experimental: as §1
The free amino acids both have λex in the range 296-302 nm but the λem of 7 is somewhat red-shifted compared to that of 6. […] As a negative control, wild-type GFP synthesis from the modified mRNA in the presence of nonacylated tRNACUA was measured for each experiment. The amounts of GFP produced were quantified with a phosphoimager, which monitored the incorporation of ^35S-methionine into proteins. […]

Row | Compound | suppression efficiency (full-length DHFR synthesis relative to wild-type) [1] | fluorescence emission [2] | Suppression efficiency in different S-30 systems, having modified ribosomes (%) ([3]; clone group 1) | Suppression efficiency in different S-30 systems, having modified ribosomes (%) ([3]; clone group 9) | suppression yield (full length GFP) relative to wild-type GFP synthesis [4]
1 | C=CCCC(=O)N[C@H]1CCCCN(CC(=O)OC2C(COP(=O)(O)OC3CC(n4ccc(N)nc4=O)OC3COP(=O)(O)O)OC(n3cnc4c(N)ncnc43)C2O)C1=O (stereo partly drawn) [cyclic peptidomimetic 145, (S)-2-(2-Oxo-3-(pent-4-enamido)azepan-1-yl)acetyl-pdCpA] | 11-13% | – | – | – | –
2 | COc1ccc(-c2oc(CN)nc2C(=O)O)cc1 [dipeptidomimetic 6] | – | ~400 nm | 10.2 ± 1.7% | 9.8 ± 2.1% | ~6.5%
